Assay results published in patent US20100015245A1, “Combination of Copper Cations with Peroxides or Quaternary Ammonium Compounds for the Treatment of Biofilms” (priority 2008, published 2010).
Values joined by “and” are separate entries in the source; they are usually repeats but may differ in a detail not shown here. Equal values may be shown once. Read-outs that look alike come from different tables or passages of the source.

Assays:
[1] = test system: P. aeruginosa ATCC 15442 biofilms; experiment: High-throughput biofilm susceptibility screening with checkerboard plates (Calgary Biofilm Device), OD650 endpoint; type: cell-based, Pseudomonas aeruginosa
[2] = test system: P. aeruginosa ATCC 27853 biofilms; experiment: Confocal-laser scanning microscopy (CLSM) with Live/Dead staining of biofilms; type: cell-based, Pseudomonas aeruginosa; settings: 8 mM Cu^2+ and/or 200 ppm Polycide®, qualitative
Procedure: Confocal-laser scanning microscopy (CLSM). Pegs were broken from the lid of the CBD using needle nose pliers. Cell viability staining of P. aeruginosa ATCC 27853 biofilms using the Live/Dead® BacLight™ Kit (Molecular Probes, Burlington, ON, Canada) was carried out according to the method as previously described (Harrison et al., 2007). Here, biofilms exposed to metals and/or biocides were rinsed twice with 0.9% saline and then stained with Syto-9 and propidium iodide at 30° C. for 30 min. Fluorescently labeled biofilms were placed in two drops of 0.9% saline on the surface of a glass coverslip. These pegs were examined using a Leica DM IRE2 spectral confocal and multiphoton microscope with a Leica TCS SP2 acoustic optical beam splitter (AOBS) (Leica Microsystems, Richmond Hill, ON, Canada) as previously described (Harrison el al., 2007). To eliminate artefacts associated with single wavelength excitation, Live/Dead® stained samples were sequentially scanned, frame-by-frame, first at 488 nm and then at 543 nm. Fluorescence emission was then sequentially collected in the green and red regions of the spectrum. […]
Up to this point, the inventors have assessed the antimicrobial action of Cu^2+ and Polycide® using viable cell counting; however, there is an alternate method of assessing biofilm cell survival: CLSM in conjunction with Live/Dead® staining. […]

[3] = test system: microaerobic cultures of P. aeruginosa ATCC 15442; experiment: Cell survival of microaerobic (anaerobic) planktonic cultures; type: cell-based, Pseudomonas aeruginosa; settings: 1 mM CuSO4 and/or 25 ppm Polycide®, 48 h at 37° C., BHI broth
Procedure: (§1) FIGS. 6A-C. Cell survival and nitrate (NO3) reduction by anaerobic P. aeruginosa ATCC 15442 cultures grown in the presence of Cu^2+ and Polycide®, alone and in combination. An aerobic starter culture was grown overnight in TSB and this was diluted 1 in 500 to get a starting cell count of 1×10^7 CFU/mL for anaerobic cultures. These cells were grown in BHI broth, with and without the addition of 1 mM KNO3, for 6 h prior to the addition of 1 mM CuSO4, 25 ppm Polycide , or 1 mM CuSO4+25 ppm Polycide®. Following an additional 48 h incubation at 37° C., aliquots were removed to determine (FIG. 6A) mean viable cell counts and (FIG. 6B) log-killing. Remaining cells from anaerobic cultures were lysed and fractionated into cytosolic and membrane components. The cytosolic components were assayed for (FIG. 6C) nitrate reductase (NR) activity. In this figure, each bar represents the mean and standard deviation of 3 to 8 independent replicates. NR activity calculations were corrected for baseline shifts in spectrophotometric measurements caused by the presence of oxygen in water, which reacts with reduced methyl viologen over time.
Strains and growth media. All of the microbial strains used in this study are summarized in TABLE 1 and all were stored at −70° C. in Microbank™ vials (ProLab Diagnostics, Toronto, Canada) according to the manufacturer's directions. […]

nitrate reductase (NR) = experiment: Nitrate reductase activity of cytosolic fractions of treated cultures (methyl viologen assay); type: biochemical, Pseudomonas aeruginosa; settings: cells grown with 1 mM CuSO4 and/or 25 ppm Polycide®
Procedure: as §1
Protein fractionation and nitrate reduction assays. […] Nitrate reductase activity was determined spectrophotometrically at 575 nm for cytoplasmic fractions, using methyl viologen as an electron donor, as previously described (Jones et al., 1977; Magalon et al., 1998).

[4] = 5 min exposure, double distilled water, single agent, median
[5] = 30 min exposure, double distilled water, single agent, median
[6] = 24 h exposure, 10% tryptic soy broth/0.9% NaCl, single agent, median

SMILES | Biofilm minimum bactericidal concentration (MBCb) [1, 4] | Biofilm minimum bactericidal concentration (MBCb) [1, 5] | Biofilm minimum bactericidal concentration (MBCb) [1, 6] | Biofilm minimum bactericidal concentration (MBCb) [1] | Bacterial cell survival in biofilms by Live/Dead staining [2] | Effect on microaerobic cultures (viable cell counts, log-killing) [3] | Nitrate reduction capacity / NR activity of cell lysates (nitrate reductase (NR))
O=[N+]([O-])[O-].[Ag+] [Ag^+, silver nitrate] | >19 mM | >19 mM | >19 mM |  |  |  | 
O=S(=O)([O-])[O-].[Cu+2] [Cu^2+, cupric sulfate] |  |  |  | >32 mM and 32 mM | killed a significant portion of the bacterial population | bacteriostatic | significantly reduced capacity for nitrate reduction
CC(C)O [Isopropyl Alcohol, Isopropyl alcohol] | 0.50% | 0.50% | 0.50% |  |  |  | 
O=[Se]([O-])[O-].[Na+].[Na+] [SeO3^2−, Sodium selenite] | >16 mM | >16 mM | >16 mM |  |  |  | 
O=S(=O)([O-])[O-].[Zn+2] [Zn^2 +, zinc sulfate] |  |  |  | >31 mM |  |  | 
